According to patent publication US8513161B2, “Enhancement of plant growth” (Valent Biosciences Corporation, priority 2007, dated 2013):

Key:
[1] = test system: cotton; assay: Continuous exposure pouch study, PESA salt and imidacloprid on cotton; format: in vivo
Description: Seeds were placed in germination pouches consisting of germination paper hydrated with sterile water that was an insert in a gas-permeable 16×14 cm plastic pouch (CYG Pouch; Mega International, St. Paul, Minn.). In these examples, in pouch solution evaluation, clothianidin and PESA sodium salt were added to the sterile water in the pouch. Alternatively, imidacloprid or dinotefuran and PESA sodium salt were added to the sterile water in the pouch. The pouches were arranged in a completely randomized block design in growth racks and placed in 19-liter polycarbonate food storage containers (Rubbermaid Commercial Products, Winchester, Va.). The sealed containers were held in an upright growth cabinet maintained at 25 C with a 12 hour light: 12 hour dark photoperiod. After 6 days, the containers were removed from the growth cabinet, and the lengths of the roots and shoot were measured. […] Root lengths of the control and combination treatment of imidacloprid with 100 mg/liter PESA salt were similar.

[2] = test system: rice; assay: Pouch study of rice, imidacloprid seed treatment with PESA salt solution in pouch; format: in vivo; settings: for shoot length of rice: control 3.3; for root length of rice: control 10.7
Description: (§1) Seed was sieved with a screen of hole size appropriate to remove broken seeds and small trash. Cracked or otherwise damaged seeds were removed. The seed was well mixed, and 50 g samples were weighed into small plastic trays. Seed treatment slurries were made by adding measured amounts of the active ingredients to sufficient water to bring them up to a standard volume, typically 2 ml. A fungicide (Maxim XL; Syngenta Agricultural Products, Greensboro, N.C.), a polymeric binder (CF-Clear; Becker-Underwood, Ames, Iowa), and a colorant (Color Coat Red; Becker-Underwood, Ames, Iowa) were also included in the slurry at label rates. A small aliquot of this slurry was applied to the seed using the Hege 11 coater (Wintersteiger, Salt Lake City, Utah) with a six-inch bowl. The slurry was deposited drop-wise on the spinning disk atomizer using a syringe.
(§2) Seeds were placed in germination pouches consisting of germination paper hydrated with sterile water that was an insert in a gas-permeable 16×14 cm plastic pouch (CYG Pouch; Mega International, St. Paul, Minn.). In these examples, in pouch solution evaluation, clothianidin and PESA sodium salt were added to the sterile water in the pouch. Alternatively, imidacloprid or dinotefuran and PESA sodium salt were added to the sterile water in the pouch. The pouches were arranged in a completely randomized block design in growth racks and placed in 19-liter polycarbonate food storage containers (Rubbermaid Commercial Products, Winchester, Va.). The sealed containers were held in an upright growth cabinet maintained at 25 C with a 12 hour light: 12 hour dark photoperiod. After 6 days, the containers were removed from the growth cabinet, and the lengths of the roots and shoot were measured.
Root lengths of the control and combination treatment of 200 grams imidacloprid/100 pounds of seed with 50 mg/liter PESA salt were similar.

[3] = test system: maize; assay: Field study, seed treatment of maize; format: in vivo, Zea mays
Description: (§3) For the field studies, the seed was treated with a seed treatment formulation containing clothianidin. The rate of clothianidin was dependent on the crop species. The seed treatment formulations were amended with the appropriate concentrations of either PESA or the sodium salt of PESA. Crops were planted and grown under standard agricultural practices, and evaluated at the times indicated. The PESA or the sodium salt of PESA was prepared as described above, and was used in seed treatment either alone or in the presence of clothianidin. Maize (Zea mays) seed was treated with 0 or 0.25 milligrams of clothianidin/seed and with 0, 22, 55, or 137.5 grams PESA salt/100 kg seed.

[4] = test system: cotton; assay: Pouch assay of cotton after PESA salt and clothianidin seed treatments; format: in vivo; settings: seed treatment; for shoot length of cotton: control 3.7; for root length of cotton: control 9.6
Description: as §1, §2

[5] = test system: cotton; assay: Continuous exposure pouch study, PESA salt and clothianidin on cotton; format: in vivo
Description: as §2

[6] = test system: soybean; assay: Field study, seed treatment of soybean; format: in vivo
Description: as §3, with “The” for “The PESA or the”, “Soybean” for “Maize (Zea mays)”, “50 grams” for “0.25 milligrams”, “clothianidin/100 kg (220 pound) of seed” for “clothianidin/seed”

[7] = test system: sorghum; assay: Field study, seed treatment of sorghum; format: in vivo
Description: as §3, with “The” for “The PESA or the”, “Sorghum” for “Maize (Zea mays)”, “200 grams” for “0.25 milligrams”, “clothianidin/100 kg (220 pound) of seed” for “clothianidin/seed”

[8] = test system: canola; assay: Field study, seed treatment of canola; format: in vivo, Brassica napus
Description: as §3, with “The” for “The PESA or the”, “Canola (Brassica napus)” for “Maize (Zea mays)”, “400 grams” for “0.25 milligrams”, “clothianidin/100 kg (220 pound) of seed” for “clothianidin/seed”

[9] = imidacloprid 200 g/100 pounds of seed alone
[10] = imidacloprid 400 g/100 pounds of seed alone
[11] = imidacloprid 800 g/100 pounds of seed alone
[12] = clothianidin 182 g/100 pounds of seed alone
[13] = clothianidin 364 g/100 pounds of seed alone

With `O=[N+]([O-])N=C1NCCN1Cc1ccc(Cl)nc1` [Imidacloprid, (EZ)-1-(6-chloro-3-pyridylmethyl)-N-nitroimidazolidin-2-ylideneamine] the “effect on cotton root length” value ([1]; continuous exposure pouch, imidacloprid 1000 mg/liter alone) was “decreased root length”, the “effect on cotton shoot length” value ([1]; imidacloprid alone) was “not affected” and the “shoot length of cotton” value ([1]; in pouch, imidacloprid 1000 mg/liter alone, control 6.2) was 6.0 cm. The “root length of cotton” value ([1]; in pouch, imidacloprid 1000 mg/liter alone, control 13.3) was 7.7 cm, the “shoot length of rice” value [2, 9] was 3.6 cm and the “root length of rice” value [2, 9] was 9.6 cm. For the same molecule, the “shoot length of rice” value [2, 10] was 3.3 cm, the “root length of rice” value [2, 10] was 8.9 cm and the “shoot length of rice” value [2, 11] was 3.6 cm. The “root length of rice” value [2, 11] was 8.3 cm and the “effect on rice root length” value ([2]; seed treatment with imidacloprid alone) was “decreased the root length in a dose-dependent manner”.
For `O=C(O)CCC(=O)NCCc1ccccc1` [PESA, N-(2-phenylethyl)succinamic acid], the “safening of maize” value ([3]; conclusion from Table 12) was “safened maize against clothianidin-induced vigor reduction”.
In the case of `CN/C(=N\[N+](=O)[O-])NCc1cnc(Cl)s1` [Clothianidin, (E)-1-(2-chloro-1,3-thiazol-5-ylmethyl)-3-methyl-2-nitroguanidine, reference compound], the “effect on cotton shoot length” value ([4]; Table 2) is reported as “increased cotton shoot length”, the “shoot length of cotton” value [4, 12] is reported as 4.1 cm and the “root length of cotton” value [4, 12] is reported as 7.8 cm. For the same molecule, the “shoot length of cotton” value [4, 13] was 4.2 cm, the “root length of cotton” value [4, 13] was 7.9 cm and the “effect on cotton root length” value ([4]; clothianidin alone 182 or 364 g/100 pounds of seed) was “reduced cotton root length”. The “effect on cotton root length” value ([5]; continuous exposure pouch, substance alone) was “decreased the length of the root”, the “effect on cotton shoot length” value ([5]; continuous exposure pouch, clothianidin alone) was “not affected” and the “shoot length of cotton” value ([5]; in pouch, clothianidin 1000 mg/liter alone, control 6.1) was 6.1 cm. The “root length of cotton” value ([5]; in pouch, clothianidin 1000 mg/liter alone, control 11.4) was 8.9 cm, the “average plant height of soybean” value ([6]; 66 days after planting, clothianidin 50 g/100 kg seed alone, control 23.8) was 21.6 inches and the “effect on soybean plant height” value ([6]; clothianidin alone, 50 g/100 kg seed) was “reduced plant height as compared to the control”. The “root dry weight of a sample of 10 sorghum plants” value ([7]; 73 days after planting, clothianidin 200 g/100 kg seed alone, control 148.5) was 108.7 grams, the “effect on sorghum root dry weight” value ([7]; clothianidin alone, 200 g/100 kg seed) was “reduced root dry weight as compared to the control” and the “vigor rating (1 = low and 5 = high) of canola plants” value ([8]; 19 days after planting, clothianidin 400 g/100 kg seed alone, control 3.8) was 2.5. For the same molecule, the “effect on canola plant vigor” value ([8]; clothianidin alone, 400 g/100 kg seed) was “reduced plant vigor as compared to the control”, the “vigor rating of maize plants, Vigor (1-5)” value ([3]; 27 days after planting, clothianidin 0.25 mg/seed alone, control 3.6) was 3.1 and the “effect on maize plant vigor” value ([3]; clothianidin alone, 0.25 mg/seed) was “reduced plant vigor as compared to the control”.
